The source of these data is patent US5120842A, “Silyl ethers of rapamycin” (American Home Products Corporation, priority 1991, dated 1992).

The subject of test [1] is cells from the thymus of normal BALB/c mice (lymphocyte proliferation). As to the kind of experiment: comitogen-induced thymocyte proliferation procedure (LAF). The class given is cell-based. To be noted: Mus musculus. As for the experimental part:
Immunosuppressive activity was evaluated in an in vitro standard pharmacological test procedure to measure lymphocyte proliferation (LAF).
Briefly, cells from the thymus of normal BALB/c mice are cultured for 72 hours with PHA and IL-1 and pulsed with tritiated thymidine during the last six hours. Cells are cultured with and without various concentrations of rapamycin, cyclosporin A, or test compound. Cells are harvested and incorporated radioactivity is determined. Inhibition of lymphoproliferation is assessed as percent change in counts per minute from non-drug treated controls. The results are expressed as an IC50.

For test [2], the system named is Candida albicans ATCC 38246. As to the kind of experiment: antifungal plate test procedure. Type of test: cell-based. To be noted: ATCC38246, strain ATCC 38246, plate disk test, read-out: MIC to inhibit growth. The protocol:
(§1) Antifungal activity of a representative compound of this invention was measured against 5 strains of Candida albicans using a plate test procedure for measurement of inhibition. The following represents the typical procedure used. Compound to be tested was placed on sterile dried 1/4" plate disks, and allowed to dry. Agar plates were seeded with fungi and allowed to solidify. The impregnated disks were placed on the seeded Agar surface and incubated for the time required for the particular culture.

For test [3], the system named is Candida albicans ATCC 10231. As to the kind of experiment: antifungal plate test procedure. Type of test: cell-based. To be noted: ATCC10231, strain ATCC 10231, plate disk test, read-out: MIC to inhibit growth. As for the experimental part:
as §1

Test [4] concerns Candida albicans ATCC 38247. As to the kind of experiment: antifungal plate test procedure. Type of test: cell-based. Conditions: ATCC38247, strain ATCC 38247, plate disk test, read-out: MIC to inhibit growth. As for the experimental part: as §1
Test [5] concerns Candida albicans ATCC 38248. As to the kind of experiment: antifungal plate test procedure. Type of test: cell-based. Conditions: ATCC38248, strain ATCC 38248, plate disk test, read-out: MIC to inhibit growth. As for the experimental part:
as §1

The next test relates to Candida albicans 3669. The test can be described thus: antifungal plate test procedure. Type of test: cell-based. To be noted: strain 3669, plate disk test, read-out: MIC to inhibit growth. As for the experimental part:
as §1

Another test has as its system IgE-like antibodies. To be noted: in vivo; cited from earlier work.
The conditions of test [6]: model for multiple sclerosis; cited from earlier work.
The conditions of test [7]: cited from earlier work.
A further test deals with Candida albicans. To be noted: in vitro and in vivo; cited from earlier work.
For test [8] the following is noted: model for rheumatoid arthritis; cited from earlier work.
Where [9] appears, read: read-out: IC50 (LAF), 72 h culture with PHA and IL-1, tritiated thymidine last six hours, table 1.

Structures are written as SMILES. Converted amounts (≈) assume the structure as drawn. Like-named read-outs stand apart in the source and are kept apart here.

For `CO[C@H]1C[C@@H]2CC[C@@H](C)[C@@](O)(O2)C(=O)C(=O)N2CCCC[C@H]2C(=O)O[C@H]([C@H](C)C[C@@H]2CC[C@@H](O[Si](C)(C)C(C)(C)C)[C@H](OC)C2)CC(=O)[C@H](C)/C=C(\C)[C@@H](O)[C@@H](OC)C(=O)[C@H](C)C[C@H](C)/C=C/C=C/C=C/1C` [Example 1, Rapamycin 42-O-[(1,1-Dimethylethyl)dimethylsilyl]ether], the IC50 in [1] (setting [9]) turned out to be 0.0458 µM. The MIC in test [2] was > 0.4 µg/mL; in [3] it was 0.2 µg/mL (≈ 0.194 µM); in test [4], 0.2 µg/mL (≈ 0.194 µM); in test [5], > 0.4 µg/mL; in the test with Candida albicans 3669 it was > 0.4 µg/mL.

On to `CO[C@H]1C[C@@H]2CC[C@@H](C)[C@@](O)(O2)C(=O)C(=O)N2CCCC[C@H]2C(=O)O[C@H]([C@H](C)C[C@@H]2CC[C@@H](O)[C@H](OC)C2)CC(=O)[C@H](C)/C=C(\C)[C@@H](O)[C@@H](OC)C(=O)[C@H](C)C[C@H](C)/C=C/C=C/C=C/1C` [Rapamycin], for which the IC50 was found to be 0.0032 µM in test [1] (setting [9]); 0.0078 µM in test [1] (read-out: IC50 (LAF), rapamycin-31-acetate and rapamycin evaluated contemporaneously). The “inhibition of formation of IgE-like antibodies” value in the test on IgE-like antibodies is recorded as “effectively inhibited the formation of IgE-like antibodies”. Also, the “effect in experimental allergic encephalomyelitis model” value in [6] was “effective”. The antitumor activity result in [7] (in combination with picibanil) and in test [7] (rapamycin alone) was “shown to have antitumor activity” each time. For the same molecule, the antifungal activity result in the test with Candida albicans is “antifungal activity, particularly against Candida albicans, both in vitro and in vivo”. For the same molecule, the minimal inhibitory concentration (MIC) is 0.025 µg/mL (≈ 0.0273 µM) in test [2]; 0.003 µg/mL (≈ 0.00328 µM) in [3]; 0.003 µg/mL (≈ 0.00328 µM) in test [4]; 0.006 µg/mL (≈ 0.00656 µM) in [5]; 0.025 µg/mL (≈ 0.0273 µM) in the test with Candida albicans 3669. The “effect in adjuvant arthritis model” value in [8] was “effective”.

For `CO[C@H]1C[C@@H]2CC[C@@H](C)[C@@](O)(O2)C(=O)C(=O)N2CCCC[C@H]2C(=O)O[C@H]([C@H](C)C[C@@H]2CC[C@@H](O)[C@H](OC)C2)CC(=O)[C@H](C)/C=C(\C)[C@@H](OC(C)=O)[C@@H](OC)C(=O)[C@H](C)C[C@H](C)/C=C/C=C/C=C/1C` [rapamycin-31-acetate, Rapamycin 31-acetate], the concentration for half-maximal inhibition (IC50) in test [1] (rapamycin-31-acetate and rapamycin evaluated contemporaneously, read-out: IC50 (LAF)) is 0.0565 µM.
